Where a name gives a salt, the structure may show the parent alone.
Experiments:
[1] = cited from earlier work
[2] = cited from earlier work; for hygroscopicity: comparison of Form 1 and Form 2, hydrochloride
[3] = Hygroscopicity and conversion of the crystalline forms on storage; type: physicochemical; details: product made by the method of the invention; chemico-physical analysis

**Q.** Which water solubility ([1]; both allomorphous forms (Form 1 and Form 2)) does the source give for `CNC(=C[N+](=O)[O-])NCCSCc1ccc(CN(C)C)o1` [ranitidine hydrochloride] here?
**A.** The water solubility was 900 mg in 1 ml of water.

**Q.** What about the solubility ([1]; in water, at 25° C) of the same compound?
**A.** The solubility was “over 900 mg/ml”.

**Q.** Which hygroscopicity [2] does the source give for `CNC(=C[N+](=O)[O-])NCCSCc1ccc(CN(C)C)o1` [ranitidine hydrochloride Form 1, ranitidine hydrochloride] here?
**A.** Its hygroscopicity is “more hygroscopic than Form 2”.

**Q.** What about the “conversion into Form 2” value ([2]; room temperature, in the presence of moisture) of the same compound?
**A.** The value was “may be converted in small amounts in the presence of moisture into Form 2”.

**Q.** With `CNC(=C[N+](=O)[O-])NCCSCc1ccc(CN(C)C)o1` [ranitidine hydrochloride Form 2, ranitidine hydrochloride] as the compound, how does the hygroscopicity [2] read?
**A.** Its hygroscopicity is “less hygroscopic than Form 1”.

**Q.** Which “conversion into the allomorphous Form 2 during the storage” value [3] does the source give for `CNC(=C[N+](=O)[O-])NCCSCc1ccc(CN(C)C)o1.Cl` [anhydrous ranitidine hydrochloride] here?
**A.** Its value is “not gradually converted during the storage into the allomorphous Form 2”.
